According to patent publication US20030203908A1, “Dihydrofolate reductase inhibitors” (priority 2000, published 2003):
≈ marks a conversion by molar mass, not a printed value.

What was measured:
[1] = target: T1, A16V.S108T mutant (mut) of DHFR from Plasmodium falciparum (Plasmodium falciparum, UniProt A7UD81, A16V/S108T); assay: biochemical
T1 construct: The Dihydrofolate Reductase Domain of Plasmodium falciparum Thymidylate Synthase-Dihydrofolate Reductase; made in house
Method: (§1) For determination of the Ki values of a number of synthesized analogues, the assay reactions were initiated with affinity-purified enzyme (^˜0.005-0.01 U ml^−1), and the initial velocities in the presence of varying concentrations of inhibitors were analysed by non-linear least square fit using Kaleidagraph™ software.

[2] = system: A16V.S108T mutant (mut) of DHFR from Plasmodium falciparum; assay: biochemical; conditions: resistance factor
Method: as §1

[3] = system: P. falciparum FCR3 (resistant strain containing the A16V.S108T DHFR mutant); assay: In vitro inhibition of P. falciparum FCR3; type: cell-based, Plasmodium falciparum; conditions: for IC50: Plasmodium falciparum, read-out: Pf-FCR3 ED50
Plasmodium berghei = assay: In vivo activity against Plasmodium berghei in mice; conditions: P. berghei
Method: These analogues were tested in vivo in a mice against Plasmodium berghei.

[4] = system: P. falciparum 3D7 (wild-type strain); assay: In vitro inhibition of P. falciparum 3D7; type: cell-based, Plasmodium falciparum; conditions: 3D7 strain; for IC50: Plasmodium falciparum, read-out: Pf-3D7 ED50
[5] = target: T2, wild-type (wt) DHFR from Plasmodium falciparum (Plasmodium falciparum, UniProt P13922, N108S/R59C); assay: Inhibition of wild-type pfDHFR (spectrophotometric, Ki); type: biochemical; conditions: Ki(wt) nM;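 note: Affinity-purified enzyme, initial reaction rates measured across a range of inhibitor concentrations, Ki obtained by nonlinear least-squares fitting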
T2 construct: The Dihydrofolate Reductase Domain of Plasmodium falciparum Thymidylate Synthase-Dihydrofolate Reductase; made in house
Method: as §1

[6] = system: wild-type (TM4/8.2) strain of P. falciparum; assay: microbe, parasite or virus in culture; type: cell-based, Plasmodium falciparum; conditions: Plasmodium falciparum; wild-type strain TM4/8.2
Outline: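 Parasitized erythrocytes (1.5% cell suspension, 1-2% parasitemia) incubated with compound (0.1% DMSO final) at 37° C in 3% CO2 for 24 h, then pulsed with 0.25 μCi [3H]-hypoxanthine for a further 18-24 h. Parasite DNA harvested onto glass filters; incorporated radioactivity counted by liquid scintillation.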

[7] = target: T3, DHFR-TS from Trypanosoma cruzi (Trypanosoma cruzi, UniProt Q27793); assay: Inhibition of T. cruzi DHFR-TS (I50-derived Ki);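 for all read-outs here: enzymes were recombinant T. cruzi DHFR-TS and human DHFR, both expressed in E. coli and purified on a methotrexate affinity column, with dihydrofolate and NADPH as substrates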; type: biochemical; conditions: for Selectivity: human Ki / T. cruzi Ki
T3 construct: pET 11c with the insertion of the complete ORF of the gene tc-dhfrts; made in house; host or cells: E. coli BL21 (DE3)
Method: DHFR activity was measured spectrophotometrically by monitoring the decrease in absorbance at 340 mm.
(§2) Inhibition of dihydrofolate reductases by 1,2-dihydro-1,3,5 triazines was analysed with T. cruzi and human DHFR.
(§3) DHFR assays contained 30 mM dihydrofolate, 0.1 mM NADPH, 50 mM TES buffer pH 7, 75 mM 2-mercaptoethanol and specified amounts of inhibitors. The reaction was initiated by addition of 2.8 or 2.3 units of T. cruzi and human, respectively, and monitored at 340 nm.
Selective inhibition of dihydrofolate reductase by 1,2-dihydro-1,3,5-triazines was analysed with T. cruzi and human DHFR. DHFR assays contained 30 μM dihydrofolate, 0.1 mM NADPH, 50 mM TES buffer pH 7, 75 mM β-mercaptoethanol and specified amounts of inhibitors. The reaction was initiated by addition of 2.8 or 2.3 units of T. cruzi and human enzyme, respectively, and monitored at 340 nm.
KiI 50=[I]0.5/((1+[S])/Km)

human DHFR [8] = target: T4, human DHFR (Homo sapiens, UniProt P00374); assay: Inhibition of human DHFR (I50-derived Ki); type: biochemical; conditions: for Ki: Human Ki (I50)(nM), human DHFR; for inhibitory activity against human DHFR: compared with methotrexate;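 for all read-outs here: recombinant human DHFR expressed in E. coli and purified by methotrexate affinity chromatography, enzyme activity followed spectrophotometrically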
T4 construct: made in house; host or cells: E. coli M15
T4 sequence (P00374 1-187): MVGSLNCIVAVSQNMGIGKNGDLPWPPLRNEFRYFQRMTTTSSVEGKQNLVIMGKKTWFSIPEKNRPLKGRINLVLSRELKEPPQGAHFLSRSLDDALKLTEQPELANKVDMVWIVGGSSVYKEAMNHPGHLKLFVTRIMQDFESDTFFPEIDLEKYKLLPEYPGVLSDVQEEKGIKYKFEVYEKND
Method: (§4) Folic acid and NADPH, were purchased from Sigma. Dihydrofolate was prepared from folic acid dithionate reduction. Methotrexate (MTX) was from Lederle Laboratories. MTX sepharose CL-6B was prepared according to the protocol described by Dann. et al. IPTG came from Boehringer Manheim. The expression system used for recombinant human DHFR production, which includes the plasmid PB-E1/RB SII, SphI-HDHFR expressed in E. coli M15, was supplied by Santi, D. V (Department of Biochemistry and Biophysics and Department of Pharmaceutical Chemistry, University of California). Recombinant T. Cruzi DHFR-TS was produced using the system pET 11c with the insertion of the complete ORF of the gene tc-dhfrts. The resulting plasmid was called pET DT.
(§5) Human and T.cruzi DHFR were produced using inducible expression systems. For human DHFR, fresh overnight cultures of E. coli M15, transformed with the plasmid, pB-E1/RB SII, SphI-HDHFR, were grown in LB and 0.1 mg/ml ampicillin medium at 28° C. For T.cruzi DHFR-TS, cultures of E. coli, BL21 (DE3) transformed with the plasmid pETDT system were grown at 37° C. The same purification protocol was used for both systems. When OD600 was at 0.8, cells pellets were collected by centrifugation, suspended in 50 ml of LB medium, containing 0.1 mg/ml of ampicillin. 10 ml of this preinocule was added to 2 litres of LB medium. Cultures were shaken at 28° C. or 37° C. (for human and T. cruzi DHFR respectively) and induction with IPTG ImM was performed when OD600 reached 0.8. After IPTG induction, cells were grown overnight in a shaker at 28° C. or 5 hours at 28° C. or 37° C. (for human and T. cruzi DHFR respectively) and then harvested by centrifugation.
(§6) Cell pellets were suspended in sonication buffer (2× TES DHFR:TES 100 mM, 2-mercaptoethanol 150 mM, EDTA 2 mM pH=7) containing protease inhibitors.
(§7) Crude extract was circulated through the MTX-Sepharose column at 4° C. at a flow rate of 0.2 ml/min until the protein was bound to the resin. The column was washed with an excess of buffer B (KH2PO410 mM pH 7, KC1 1M). Protein was eluted at 0.2 min/ml with an elution buffer (100 mM TES, 10 mM DTT, 2 mM EDTA, DHF 8.5 mM), the elution profile was collected in 1 ml fractions using a Pharmacia LKB Frac 200 collector. Finally, the protein was desalted using molecular size exclusion chromatography in a Pharmacia G-25 column. Fractions containing DHFR activity were pooled and concentrated by ultrafiltration using centripreps Amicon.
(§8) The purity of the protein preparation was assessed by detection of a single band of the correct molecular weight stained with coomasie blue following a 12% SDS-PAGE. Protein concentration was determined by the method of Bradford using a BSA as a standard. DHFR activity was measured spectrophotometrically by monitoring the decrease in absorbance at 340 mm. […] One unit of enzyme, is defined as the amount of enzyme which produces 1 nmol of product per min using ε of 12300M^−1 at 340 nm.
as §2, §3
(§9) Selective inhibition of dihydrofolate reductase by 1,2-dihydro-1,3,5-triazines was analysed with T. cruzi and human DHFR. DHFR assays contained 30 μM dihydrofolate, 0.1 mM NADPH, 50 mM TES buffer pH 7, 75 mM β-mercaptoethanol and specified amounts of inhibitors. The reaction was initiated by addition of 2.8 or 2.3 units of T. cruzi and human enzyme, respectively, and monitored at 340 nm. […] KiI 50=[I]0.5/((1+[S])/Km)

human DHFR [9] = assay: Inhibition of human DHFR (I50-derived Ki); type: biochemical;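 note: recombinant human DHFR expressed in E. coli and purified by methotrexate affinity chromatography, enzyme activity followed spectrophotometrically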
Method: as §4, §5, §6, §7, §8, §2, §3, §9

T2 sequence (P13922 10-228 R59C/N108S): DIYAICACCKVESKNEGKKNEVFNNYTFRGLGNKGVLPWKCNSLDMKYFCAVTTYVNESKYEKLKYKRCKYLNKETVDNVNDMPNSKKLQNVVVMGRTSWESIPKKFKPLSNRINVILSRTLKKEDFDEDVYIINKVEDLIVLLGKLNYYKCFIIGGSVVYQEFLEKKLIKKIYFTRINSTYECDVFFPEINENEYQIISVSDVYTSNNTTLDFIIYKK
T3 sequence (Q27793 whole entry): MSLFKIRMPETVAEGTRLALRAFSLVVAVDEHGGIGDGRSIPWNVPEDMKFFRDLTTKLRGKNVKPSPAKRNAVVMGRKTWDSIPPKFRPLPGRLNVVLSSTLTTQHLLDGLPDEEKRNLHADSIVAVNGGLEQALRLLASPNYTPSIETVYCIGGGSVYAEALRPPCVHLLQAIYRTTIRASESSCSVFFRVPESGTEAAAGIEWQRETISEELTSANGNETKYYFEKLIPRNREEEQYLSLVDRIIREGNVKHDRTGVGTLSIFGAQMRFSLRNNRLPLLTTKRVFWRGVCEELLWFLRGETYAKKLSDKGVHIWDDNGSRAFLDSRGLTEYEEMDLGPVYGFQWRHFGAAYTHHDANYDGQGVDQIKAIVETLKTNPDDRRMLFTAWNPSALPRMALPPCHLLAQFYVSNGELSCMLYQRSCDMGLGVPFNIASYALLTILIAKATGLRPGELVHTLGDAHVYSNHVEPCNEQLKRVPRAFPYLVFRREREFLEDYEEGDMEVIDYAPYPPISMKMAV
T1 sequence (A7UD81 1-231 A16V/S108T): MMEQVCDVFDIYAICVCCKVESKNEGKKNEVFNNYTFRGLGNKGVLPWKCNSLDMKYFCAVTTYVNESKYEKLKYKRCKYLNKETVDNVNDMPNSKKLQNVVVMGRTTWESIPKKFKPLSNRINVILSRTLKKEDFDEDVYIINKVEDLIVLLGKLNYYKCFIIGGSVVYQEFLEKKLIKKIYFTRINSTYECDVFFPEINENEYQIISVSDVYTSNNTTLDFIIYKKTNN

SMILES | Ki [1] [nM] | Ki(mut)/Ki(wt) [2] | IC50 ([3]; in vitro, FCR3 strain) [mg/L] | Mean % infected RBC (Plasmodium berghei; 25 mg/kg daily x4) [%] | Ki [5] [nM] | IC50 [6] [nM] | other results
NC1=NC(c2cccc(Oc3ccc(Cl)cc3)c2)N(c2cccc(Cl)c2)C(N)=N1 (stereo not drawn) [(Ib) R2=3-(4-chlorophenoxy)phenyl] | 3.5 ± 0.5 | 2.7 | 0.078 (≈ 0.183 µM) | 5.0 | 1.3 | 3950 | IC50 [4]: 0.36 mg/L (≈ 0.844 µM)
NC1=NC(c2cccc(Oc3ccccc3)c2)N(c2cccc(Cl)c2)C(N)=N1 (stereo not drawn) [(Ib) R2=3-phenoxyphenyl, 1-m-chlorophenyl-2-m-phenoxyphenyl-4,6-diamino-1,2-dihydro-1,3,5-triazine] | 1.9 | 1.9 | 0.0008 (≈ 0.00204 µM) | 7.05 | 1 ± 0.2 | 2300 | Ki [7]: 4 nM; Selectivity [7]: 0.5; ED50 against the resistant Pf FCR-3 strain in vitro [3]: 0.8 nM; IC50 [4]: 0.22 mg/L (≈ 0.561 µM); Ki (human DHFR [8]): 2 nM; inhibitory activity against human DHFR (human DHFR [8]): comparable to that of methotrexate; Ki (human)/Ki (P. falc. mut) (human DHFR [9]): 0.8; Ki (human)/Ki (P. falc. wt) (human DHFR [9]): 1.8; Ki (human)/Ki (T. cruzi) (human DHFR [9]): 0.5
CCCCOc1ccc(C2N=C(N)N=C(N)N2c2cccc(Cl)c2)cc1 (stereo not drawn) [R2=4-nBuOC6H4, X=H, Y=Cl] |  |  |  | 16.46 |  |  | Pf-FCR3 ED50 ([3]; in vitro, FCR3 strain): 0.0038 mg/L; Pf-3D7 ED50 [4]: 0.3 mg/L
NC1=NC(c2cccc(Oc3ccccc3)c2)N(c2ccc(OCc3ccccc3)cc2)C(N)=N1 (stereo not drawn) [1-p-Benzyloxyphenyl-2-m-phenoxyphenyl-4,6-diamino-1,2-dihydro-1,3,5-triazine] | 4.5 ± 0.6 | 5 |  |  | 0.9 ± 0.2 | 255 | melting point: 208 to 210 °C; Ki [7]: 3 nM; Selectivity [7]: 3.3; Ki (human DHFR [8]): 10 nM; inhibitory activity against human DHFR (human DHFR [8]): comparable to that of methotrexate; Ki (human)/Ki (P. falc. mut) (human DHFR [9]): 2.2; Ki (human)/Ki (P. falc. wt) (human DHFR [9]): 11; Ki (human)/Ki (T. cruzi) (human DHFR [9]): 3.33
COc1ccc(Oc2cccc(C3N=C(N)N=C(N)N3c3cccc(Cl)c3)c2)cc1 (stereo not drawn) [(Ib) R2=3-(4-methoxyphenoxy)phenyl] | 2.5 ± 0.3 | 1.1 |  | 1.94 | 2.3 ± 0.1 | 4120 | 
NC1=NC(c2cccc(Oc3ccc(Cl)c(Cl)c3)c2)N(c2cccc(Cl)c2)C(N)=N1 (stereo not drawn) [(Ib) R2=3-(3,4-dichlorophenoxy)phenyl] | 9.1 ± 0.7 | 4.1 |  | 13.0 | 2.2 ± 0.2 | 3900 | 
NC1=NC(c2ccc(Oc3ccc(C(F)(F)F)cc3)cc2)N(c2cccc(Cl)c2)C(N)=N1 (stereo not drawn) [R2=4-(4-CF3PhO)C6H4, X=H, Y=Cl] |  |  |  |  |  |  | Mean % infected RBC (Plasmodium berghei; 24 mg/kg daily x4): 4.4%
NC1=NC(c2ccc(Oc3ccccc3)cc2)N(c2cccc(Cl)c2)C(N)=N1 (stereo not drawn) [(Ib) R2=4-phenoxyphenyl] | 2.7 ± 0.4 | 3.9 | 0.004 (≈ 0.0102 µM) |  | 0.7 | 647 | Mean % infected RBC (Plasmodium berghei; 25 mg/kg, schedule b): 11.42%
